Source: US20220340976A1, “RAPID PREDICTION OF DRUG RESPONSIVENESS” (THE BROAD INSTITUTE, INC., priority 2019, published 2022)
Several values for one entry are separate records, joined by “and”; a condition that tells them apart may be missing. Equal values may be shown once. Entries after “also recorded” stand apart in the source; their conditions may differ.

Key:
cancer cell lines = details: GDSC and PRISM drug sensitivity data; cited from earlier work
[1] = system: pools of well-characterized cancer cell lines; assay: MIX-Seq: scRNA-seq transcriptional response profiling of drug-treated cell line pools; type: cell-based, human; details: for shared viability-related signature (cell-cycle genes): across compounds, 24 hours post-treatment
Description: Cell line pools were made in sets of 25 cell lines. These 25 cell line pools were chosen based on doubling time and were grown in RPMI in the absence of phenol red and with 10% FBS. Cell lines were then washed with 10 mLs of PBS, and trypsinized with 1 mL trypsin which was then removed. Ten mLs of RPMI media were added to the cells post trypsinization and resuspended. Cells were then counted by a Nexcelom cellometer using 10 uL of cell suspension and 10 ul of Trypan blue. Equal numbers of cells per cell line were mixed together and spun down at 1,250 RPM for 5 minutes. Media was aspirated and the cells were resuspended in Sigma Cell Freezing media and frozen in 1 mL aliquots. This process was repeated for all of the 25 cell line pools. For MIX-Seq experiments involving larger pools, multiple 25 cell line pools were thawed in RPMI with 10% FBS, spun down and resuspended in 5 mLs of RPMI media. Cells were then counted and equal numbers were combined together on the day of plating to form larger pools of up to ˜100 cell lines.
For drug treatment experiments, cell line pools were cultured in RPMI containing 10% fetal bovine serum, in the absence of phenol red and penicillin/streptomycin. Cell line pools were validated as Mycoplasma free prior to initiating the experiment. Cell line pools were plated at 200,000 cells per well in 6 well plates containing 2 mL of RPMI culture media described above. […] Cell pools were plated ˜16-20 hours prior to drug treatment. Cells were treated with the described drugs or vehicle (DMSO) with a 0.2% final media DMSO concentration.
Generally cells were harvested after drug treatment using standard cell culture methods. Briefly, after drug treatment cells that were in suspension (presumably containing dead cells from drug treatment) were collected and reserved for addition to the adherent cell fraction. Adherent cells were washed once with 1×PBS, trypsinized in 1 mL trypsin, incubated for 3-7 minutes at 37 C, and then trypsin inactivated with 1 mL growth media. For Cell Hashing, cells were treated with TrypLE Express (ThermoFisher) instead of trypsin to reduce the amount of cell surface proteins digested that may affect the binding of Cell Hashing antibodies.
After trypsinization, adherent and suspension cells were combined for each treatment, pelleted, and resuspended in Cell Capture Buffer (lx PBS with 0.04% BSA). Cells were counted (including trypan blue non-viable cells) and resuspended at a concentration of 1,000 cells per microliter for standard loading on the Chromium Controller (10× Genomics), or at 1,500 cells per microliter for “super loaded” samples. Up to 40,000 cells were loaded per 10× channel for “super loaded” samples, with expected recovery of up to 20,000 cells per channel. Cell suspensions were captured on a 10× Chromium controller using Single Cell 3′ reagent chemistries (either version 2 or and version 3 reagents) FIG. 26.
Sequencing data were processed using 10× Cell Ranger software, run using the Cumulus cloud-based analysis framework (Li et al. 2019). Initial experiments were done with 10× Single Cell 3′ v2 chemistry, and were processed using version 2 of the Cell Ranger software. In later experiments v3 chemistry and the corresponding version 3 of Cell Ranger were used. Reads were aligned to the hg19 reference genome.
To estimate the average transcriptional response of each cell line to a perturbation, the data were first ‘sum-collapsed’—summing read counts across cells for each cell line and treatment condition—to produce a bulk RNA-seq style read counts profile for each sample (Crowell et al. 2019; Lun & Marioni 2017). […]

[2] = system: pools of cancer cell lines; assay: Cell cycle phase analysis inferred from single-cell transcriptional profiles (MIX-Seq); type: cell-based, human; details: for change in proportion of cells in G2/M phase / change in proportion of cells in S phase: 24 hours post-treatment, average weighted by drug sensitivity
Description: Cell cycle phase classification was performed using the Seurat function CellCycleScoring, using the S- and G2M-phase gene lists reported in Tirosh et al. 2016. The change in proportion of cells in each phase between treatment and control conditions for each cell line, along with associated confidence intervals, were estimated using the prop.test R function. For FIG. 4C, aggregate scores were computed representing how each compound altered the cell cycle composition by computing weighted averages across cell lines of the change in proportion of cells in each phase, where the weights were determined by the cell lines' measured drug sensitivity (1 minus AUC, bounded between 0 and 1).
For example, characterizing the cell cycle effects of a perturbation yields important information about its MoA. Such measurements have heretofore typically been made using a FACS-based assay, which must be performed on each sample independently and cannot be used to relate cell cycle effects post hoc to other phenotypes without advanced planning. Using MIX-Seq, such measurements can be made in parallel across a pool of cell lines, inferring the cell cycle phase of each cell from its transcriptional profile (Tirosh et al. 2016).
Next, the effects of each compound on the cell cycle were systematically assessed (see Example 1 above). […] Two notable exceptions were the DNA-damaging agent gemcitabine and the CHEK1/2 inhibitor prexasertib.

[3] = system: pools of cancer cell lines; assay: Single-cell heterogeneity analysis of drug responses (clustering of scRNA-seq profiles); type: cell-based, human; details: of the 24 cell lines in the pool, 24 hours after treatment
Source text: Specifically, the edgeR quasi-likelihood approach was used (Lun et al. 2016), following the pipeline in Soneson et al. 2018, with the cell detection rate (the fraction of genes with non-zero reads detected) included as a covariate.
To identify subpopulations of bortezomib treated cells (FIGS. 4D-4F), Seurat's default methods were used to normalize the data, detect variable genes, and compute PCs (using 5000 most variable genes, and 50 PCs). Seurat's default clustering methods were then used to cluster cells for each cell line (using the 20 nearest neighbors, and a clustering resolution parameter of 0.25).
To identify sub-populations of cells from a given cell line in a consistent fashion across baseline and treatment conditions (for analysis and presentation in FIG. 19), the following procedure was employed. After restricting to cells from the target cell line, the scTransform method (Hafemeiester et al. 2019) was used to normalize the data, identify 5,000 variable genes, and regress out experimental condition as a covariate to align clusters across conditions. Seurat's default clustering methods (using the top 10 PCs, 20 nearest neighbors, and a clustering resolution parameter of 0.25) were then used to identify clusters jointly across treated and control cells.

[4] = 24 hours post-treatment (FIGS. 9B, 9C)

SMILES: CC1(C)CCC(c2ccc(Cl)cc2)=C(CN2CCN(c3ccc(C(=O)NS(=O)(=O)c4ccc(N[C@H](CCN5CCOCC5)CSc5ccccc5)c(S(=O)(=O)C(F)(F)F)c4)cc3)CC2)C1 [navitoclax]
- long-term viability response across cell lines (cancer cell lines): strong selective viability responses
- robust transcriptional response signature ([1]; 6 and/or 24 hours post-treatment): did not produce strong and/or selective transcriptional responses; also recorded: did not produce robust transcriptional response signatures; also recorded: a robust transcriptional response to navitoclax was not observed

SMILES: CC(C)(C)c1nc(-c2cccc(NS(=O)(=O)c3c(F)cccc3F)c2F)c(-c2ccnc(N)n2)s1 [dabrafenib]
- variability of transcriptional responses among sensitive cell lines ([1]; BRAF-mutant melanoma cell lines, 24 hour post-treatment): substantial variation

SMILES: Nc1ccn([C@@H]2O[C@H](CO)[C@@H](O)C2(F)F)c(=O)n1 [gemcitabine]
- change in proportion of cells in G2/M phase [2]: decreased the proportion of cells in G2/M
- change in proportion of cells in S phase [2]: increase in S-phase cells
- gene sets enriched in across-cell-line average transcriptional response [1, 4]: altered expression of apoptosis-related genes
- shared viability-related signature (cell-cycle genes) [1]: shared signature was also apparent

SMILES: CO[C@H]1C[C@@H]2CC[C@@H](C)[C@@](O)(O2)C(=O)C(=O)N2CCCC[C@H]2C(=O)O[C@H]([C@H](C)C[C@@H]2CC[C@@H](OCCO)[C@H](OC)C2)CC(=O)[C@H](C)/C=C(\C)[C@@H](O)[C@@H](OC)C(=O)[C@H](C)C[C@H](C)/C=C/C=C/C=C/1C [everolimus]
- gene sets enriched in across-cell-line average transcriptional response [1, 4]: mTOR signaling was the top down-regulated gene set

SMILES: CC(C)C[C@H](NC(=O)[C@H](Cc1ccccc1)NC(=O)c1cnccn1)B(O)O [bortezomib]
- number of cell lines showing a bimodal response [3]: 10 and 9
- gene sets enriched in across-cell-line average transcriptional response ([1]; 6 hours post-treatment (FIG. 9A)): strong up-regulation of protein folding and heat-shock response pathways
- shared viability-related signature (cell-cycle genes) [1]: shared signature was also apparent

SMILES: COc1ccc(C2=NC(c3ccc(Cl)cc3)C(c3ccc(Cl)cc3)N2C(=O)N2CCNC(=O)C2)c(OC(C)C)c1 (centres unmarked) [nutlin]
- change in proportion of cells in G0/G1 ([2]; pool of 24 cell lines, TP53 WT vs TP53 mutant): pronounced G0/G1-arrest phenotype selectively among the TP53 WT cell lines; also recorded: elicits G1-arrest selectively among the TP53 WT cell lines
- average drug-induced changes in gene expression for each cell line ([1]; TP53 WT cell lines (7) in a pool of 24 cell lines): robust response; also recorded: strong gene expression changes
- gene set enrichment analysis of average transcriptional response, down-regulated ([1]; among TP53 WT cell lines): down-regulation of cell cycle processes
- gene set enrichment analysis of average transcriptional response, up-regulated ([1]; among TP53 WT cell lines): clear up-regulation of genes in the TP53 downstream pathway
- average drug-induced changes in gene expression for each cell line ([1]; cell lines harboring TP53 mutations (n=17) in a pool of 24 cell lines): only minimal changes; also recorded: weak gene expression changes

SMILES: COc1cccc(OCCCN)c1-c1cc(Nc2cnc(C#N)cn2)n[nH]1 [prexasertib]
- change in proportion of cells in G2/M phase [2]: slightly increased the fraction of G2/M cells
- change in proportion of cells in S phase [2]: decreased the proportion of S-phase cells
- shared viability-related signature (cell-cycle genes) [1]: shared signature was also apparent

SMILES: Cc1sc2c(c1C)C(c1ccc(Cl)cc1)=N[C@@H](CC(=O)OC(C)(C)C)c1nnc(C)n1-2 [JQ-1]
- shared viability-related signature (cell-cycle genes) [1]: shared signature was also apparent
